Experimental data reported in patent US12022833B2, “Uracil compound and composition for controlling harmful arthropods comprising the same” (Sumitomo Chemical Company, Limited, priority 2018, dated 2024).

Tested on: diamondback moth (Plutella xylostella)
Experiment: Test Example 1: cabbage seedling spray test against diamondback moth larvae
Type: in vivo
Settings: 500 ppm diluted solution sprayed on cabbage seedling, 20 mL/seedling; five second instar larvae; 25° C. for 5 days
Protocol: Thirty-five (35) parts of a mixture of polyoxyethylene alkyl ether sulfate ammonium salt and wet silica (weight ratio of 1:1), 20 parts of the compound A, and 45 parts of water were mixed thoroughly. The resulting mixture was diluted with water containing 0.03 v/v % of Shindain (registered trademark) to prepare a diluted solution containing 500 ppm of the compound A. The diluted solution was sprayed into the cabbage (Brassicae oleracea) seedling (on the developmental stage of the second to third true leaf) that is planted in a container in a ratio of 20 mL/seedling.
Thereafter, the stem and leaf of thereof was cut out and then was installed into the container that was covered with the filter paper. Five second instar larvae of diamondback moth (Plutella xylostella) were released into the container, and the container was allowed to stand at 25° C. for 5 days. Thereafter, the surviving insects were counted, and the mortality was calculated from the following equation, and as a result, the mortality was 100%. Mortality (%)=(1−Number of the surviving insects/5)×100
The test was carried out according to Test Example 1 using the compound B instead of the compound A. As a result, the mortality was 0%.

In the case of `COC(=O)COC(=O)COc1ncccc1Oc1cc(-n2c(=O)cc(C(F)(F)F)n(C)c2=O)c(F)cc1Cl` [Compound B], the Mortality is reported as 0%.

`CCOC(=O)COC(=O)COc1ncccc1Oc1cc(-n2c(=O)cc(C(F)(F)F)n(C)c2=O)c(F)cc1Cl` [Compound A] showed a Mortality of 100%.
